Data taken from article PMC3813382 (The Journal of General Physiology, 2013).

Target: T1, L209T Slo2.1 channels (Homo sapiens, UniProt Q6UVM3, L209T)
T1 sequence (Q6UVM3 1-1135 L209T): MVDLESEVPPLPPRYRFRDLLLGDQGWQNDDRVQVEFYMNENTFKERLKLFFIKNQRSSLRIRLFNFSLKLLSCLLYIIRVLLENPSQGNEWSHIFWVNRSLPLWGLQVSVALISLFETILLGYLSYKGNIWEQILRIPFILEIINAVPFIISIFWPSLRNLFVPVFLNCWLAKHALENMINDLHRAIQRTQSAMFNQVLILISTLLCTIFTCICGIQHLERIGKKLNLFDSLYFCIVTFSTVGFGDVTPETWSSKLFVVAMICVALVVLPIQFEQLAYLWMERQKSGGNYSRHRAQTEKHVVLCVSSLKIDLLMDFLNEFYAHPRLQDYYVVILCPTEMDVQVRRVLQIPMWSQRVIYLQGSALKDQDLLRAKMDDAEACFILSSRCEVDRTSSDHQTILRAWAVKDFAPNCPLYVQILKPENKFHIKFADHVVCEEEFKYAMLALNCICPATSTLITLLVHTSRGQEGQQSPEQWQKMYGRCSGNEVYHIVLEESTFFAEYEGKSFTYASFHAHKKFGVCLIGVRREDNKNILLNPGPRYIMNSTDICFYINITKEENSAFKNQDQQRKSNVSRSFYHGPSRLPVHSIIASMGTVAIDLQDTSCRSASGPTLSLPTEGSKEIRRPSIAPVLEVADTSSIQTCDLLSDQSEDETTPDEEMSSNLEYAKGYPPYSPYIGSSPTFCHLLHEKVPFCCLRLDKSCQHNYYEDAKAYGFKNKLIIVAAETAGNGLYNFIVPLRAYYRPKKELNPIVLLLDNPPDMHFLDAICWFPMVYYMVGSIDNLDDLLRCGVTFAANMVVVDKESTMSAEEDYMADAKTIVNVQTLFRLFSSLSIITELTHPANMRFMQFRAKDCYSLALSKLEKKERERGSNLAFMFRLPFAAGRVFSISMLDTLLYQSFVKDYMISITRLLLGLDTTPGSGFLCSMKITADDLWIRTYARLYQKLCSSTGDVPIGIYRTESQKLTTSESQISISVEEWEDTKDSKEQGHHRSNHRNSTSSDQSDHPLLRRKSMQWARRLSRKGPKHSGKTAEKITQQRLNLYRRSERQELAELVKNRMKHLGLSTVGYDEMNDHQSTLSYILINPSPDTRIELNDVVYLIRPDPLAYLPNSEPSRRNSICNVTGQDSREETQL
Assay: Activation of ISlo2.1 by NFA, two-electrode voltage clamp in oocytes
Format: cell-based

O=C(O)c1cccnc1Nc1cccc(C(F)(F)F)c1 [NFA, niflumic acid]
EC50: 106 µM | Hill coefficient nH of NFA activation (L209T): 1.39 ± 0.12 | NFA sensitivity of L209T relative to WT Slo2.1 (L209T vs WT): 20 fold
